Earlier results on three molecules are cited in patent US8962267B1, “Method for predicting the response of non-small cell lung cancer patients to targeted pharmacotherapy” (Pamgene B.V., priority 2009, dated 2015).

The series concerns NSCLC. The note with it: second-line treatment of NSCLC patients, clinical trials, versus control.
Consider `C#Cc1cccc(Nc2ncnc3cc(OCCOC)c(OCCOC)cc23)c1` [erlotinib], for which the overall survival is reported as 6.7 months.

With `Nc1nc2[nH]cc(CCc3ccc(C(=O)N[C@@H](CCC(=O)O)C(=O)O)cc3)c2c(=O)[nH]1` [pemetrexed], the overall survival was 8.3 months.

Turning to `CC(=O)O[C@@]12CO[C@@H]1C[C@H](O)[C@@]1(C)C(=O)[C@H](O)C3=C(C)[C@@H](OC(=O)[C@H](O)[C@@H](NC(=O)OC(C)(C)C)c4ccccc4)C[C@@](O)([C@@H](OC(=O)c4ccccc4)[C@H]21)C3(C)C` [docetaxal, docetaxel], the overall survival is 7.5 months.
